Data from patent US9279806B2, “Water-soluble AIE luminogens for monitoring and retardation of fibrillation of amyloid proteins” (THE HONG KONG UNIVERSITY OF SCIENCE AND TECHNOLOGY, priority 2005, dated 2016).
Where two headings read alike, the source gives them in different places.

How the values were obtained:
[1] = tested on: ctDNA/RNA from torula yeast/BSA; test: Fluorescence increments / binding isotherm with ctDNA, RNA and BSA; conditions: 10 μg/ml ctDNA or RNA, dye 5 μM
Method: FIG. 8 illustrates increments of fluorescence of TPE-C2N^+ (8), N+C2-TPE-C2N^+ (9), TPE-C4N^+ (10), N+C4-TPE-C4N^+ (11) when binding with 10 μg/ml ctDNA/10 μg/ml RNA diethylaminoethanol (DEAE) salt from torula yeast/10 μg/ml RNA from torula yeast in buffer solution pH=7. Concentration of dyes: 5 μM; excitation wavelength: 350 nm. The four cationic TPE derivatives display larger FL enhancement in the presence of DNA than that of RNA.
FIG. 9 illustrates the binding isotherm of N+C2-TPE-C2N^+ (5 μM) to ctDNA/RNA from torula yeast/BSA (plot of the fluorescence intensity at 470 nm for ctDNA/RNA, and at 467 nm for BSA) in aqueous phosphate buffer (pH=7.0).

[2] = Photophysical properties in solution and aggregate states (AIE effect); assay type: physicochemical; conditions: for Fluorescence quantum yield (ΦF), molecularly dissolved: AN solution / AN-water mixtures with low water fraction; for Fluorescence quantum yield (ΦF), aggregated: AN/water mixture with 99% water
Source text: Changes in the φF values of TBEPE in the AN/water mixtures with different water contents further confirm its AIE nature. […] Afterward the φF value starts to increase swiftly. In the AN/water mixtures with lower water fractions, TBEPE is genuinely dissolved, while in the aqueous mixtures with higher water fractions (>60%), the dye molecules cluster together due to the deterioration in the solvating power of the mixture. When the water fraction is increased to 99 vol %, the aφF value is increased to −18%, which is ˜35-fold higher than that in the pure AN solvent. The absolute φF values of the aggregates should be much higher than the relative ones given in FIG. 26A, if the light scattering caused by the Mie effect of the nanoaggregatcs is taken into consideration. […]
Dilute solutions of TPEs 1 and 2 in AN are practically non-luminescent. Addition of non-solvent water into the AN solutions can turn on the emissions of the dyes. From the molecular solution in AN to the aggregate suspension in an AN-water mixture (1:99 by volume), the fluorescent intensity of TPE 1 at 476 nm is increased by −240 fold (FIG. 11A). Its absorption maximum shifts from 310 nm in the solution to 330 nm in the suspension. The excitation maximum of TPE 1 locates at 330 nm, coinciding well with its absorption maximum. […] Evidently, the emission of TPE 1 is induced by the aggregate formation, or in other words, TPE 1 is AIE-active.
The ΦF value of TPE 1 starts to increase when the water fraction is increased to ˜50%, at which the solvating power of the mixture is decreased to such an extent that the dye molecules begin to aggregate. The ΦF value reaches ˜20% at a water content of 99%, which is ˜40-fold higher than that of its AN solution. […] Their emissions in the mixtures remain as faint as those in the water solutions.

[3] = Solubility; assay type: physicochemical
[4] = target: Bovine serum albumin (BSA) (Bos taurus, UniProt P02769); test: Fluorimetric titration of BSA to polyenes; assay type: binding
Sequence of Bovine serum albumin (BSA) (P02769 25-607): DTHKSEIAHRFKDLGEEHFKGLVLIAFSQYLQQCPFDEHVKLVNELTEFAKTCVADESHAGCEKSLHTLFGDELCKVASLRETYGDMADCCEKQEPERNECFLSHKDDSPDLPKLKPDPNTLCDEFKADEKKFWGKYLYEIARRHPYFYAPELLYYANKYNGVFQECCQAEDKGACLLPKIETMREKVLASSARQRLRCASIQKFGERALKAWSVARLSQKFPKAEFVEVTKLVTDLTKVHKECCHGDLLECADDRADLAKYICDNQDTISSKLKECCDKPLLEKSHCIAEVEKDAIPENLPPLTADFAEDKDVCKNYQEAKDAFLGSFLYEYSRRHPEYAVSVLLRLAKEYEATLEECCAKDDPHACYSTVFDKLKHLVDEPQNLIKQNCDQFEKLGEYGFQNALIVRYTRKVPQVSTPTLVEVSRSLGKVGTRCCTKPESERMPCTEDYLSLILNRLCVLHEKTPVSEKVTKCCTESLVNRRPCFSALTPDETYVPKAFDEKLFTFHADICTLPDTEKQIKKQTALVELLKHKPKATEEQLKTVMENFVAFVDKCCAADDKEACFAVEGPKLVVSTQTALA
Method: (§1) Fluorimetric titration of biomacromolecules to polyenes Bovine serum albumin (BSA) and calf thymus DNA (ctDNA) were selected as model proteins and DNA. BSA was dissolved in a pH 7.0 phosphate buffer solution (1.0 mg/ml). DNA was dissolved in deionized water (1.0 mg/ml) and filtered through a 0.45 μm filter. The actual concentration (in nucleic base) was determined by UV photometry using the extinction coefficient ε260=6600 M^−1 cm^−1.
(§2) Stock solutions of polyenes were 5×10^−4 M in water. Fluorescence titration was carried out by sequentially adding 100 μl aliquots of DNA or BSA solutions to a 100 μl stock solution of polyenes, followed by adding an aqueous phosphate buffer (10 mM, pH 7) to acquire a 10.00 ml solution. The mixtures were stirred for half an hour prior to taking their spectra.
Complexation of the water-soluble AIE TPEs 3 and 4 with calf thymus DNA (ctDNA) and bovine serum albumin (BSA) were investigated by spectrometric titrations in aqueous phosphate buffer (pH=7.0) at 25 C. Stock solutions of TPEs 3 and 4 (0.25 mM) were prepared.

[5] = tested on: HG21 DNA; test: CD spectra: G-quadruplex induction by TPE derivatives; assay type: biochemical; conditions: 9 μM DNA, 4.5 μM TPE derivative, Tris-HCl pH 7.5, 25 °C
Method: [TPE]=4.5 μM; [HG21]=9 μM and [K^+]=0.5 M.
CD spectral profiles of 9 μM DNA in 5 mM Tris-HCl buffer solutions (pH 7.5) incubated under 25° C. with four different TPE derivatives at 4.5 μM or with 0.5M K^+ ions are studied (FIG. 77). TPE derivatives 1-4 are TTAPE (Example 6), TPE-2 (chemical structure is not shown herein), TPE-3 (chemical structure is not shown herein) and TPE-C2N+ (Example 3), respectively. […] On the other hand, DNA incubated with TTAPE or the known quadruplex inducer; K^+ ions have very similar spectral profiles, while the ellipticities of DNA/TTAPE are somehow weaker than DNA/K^+.

[6] = tested on: calf thymus DNA (ctDNA); test: Fluorimetric titration of ctDNA to polyenes; assay type: binding; conditions: for Relative affinity to ctDNA versus BSA: phosphate buffer pH 7, dye 2.5 μM
Method: as §1, §2
Complexation of the water-soluble AIE TPEs 3 and 4 with calf thymus DNA (ctDNA) and bovine serum albumin (BSA) were investigated by spectrometric titrations in aqueous phosphate buffer (pH=7.0) at 25 C. Stock solutions of TPEs 3 and 4 (0.25 mM) were prepared. The mixture of 100 μl stock solution of 3 with 9.9 ml buffer emits faintly at 395 nm with a side band at 462 nm. Its absorption maximum locates at 311 nm, with a molar absorptivity of 12400M^−1 cm^−1. Upon addition of the DNA, FL intensity of TPE 3 increased by 5.4 fold. Meanwhile its emission maximum shifted to ˜462 nm, giving a Stokes shift as large as 134 nm. In the DNA concentration range of 0-100 μg/ml^−1, the plot of the FL intensity (1) at 462 nm as a function of DNA concentration (c) is a linear line with a correlation coefficient of 0.996. Addition of BSA to a buffer solution of TPE 3 induced a similar effect. The linear range of the I/IO−1 vs. c plot in this case is 0-50 μg/ml^−1. The excitation maximums of the solutions of TPE3 containing BSA and ctDNA both locate at 328 nm.

[7] = Photophysical properties in solution and aggregate states (AIE effect); assay type: physicochemical; conditions: for Emission maximum wavelength (λem): excitation 350 nm
[8] = target: HSA (Homo sapiens, UniProt P02768); conditions: cited from earlier work
Sequence of HSA (P02768 25-609): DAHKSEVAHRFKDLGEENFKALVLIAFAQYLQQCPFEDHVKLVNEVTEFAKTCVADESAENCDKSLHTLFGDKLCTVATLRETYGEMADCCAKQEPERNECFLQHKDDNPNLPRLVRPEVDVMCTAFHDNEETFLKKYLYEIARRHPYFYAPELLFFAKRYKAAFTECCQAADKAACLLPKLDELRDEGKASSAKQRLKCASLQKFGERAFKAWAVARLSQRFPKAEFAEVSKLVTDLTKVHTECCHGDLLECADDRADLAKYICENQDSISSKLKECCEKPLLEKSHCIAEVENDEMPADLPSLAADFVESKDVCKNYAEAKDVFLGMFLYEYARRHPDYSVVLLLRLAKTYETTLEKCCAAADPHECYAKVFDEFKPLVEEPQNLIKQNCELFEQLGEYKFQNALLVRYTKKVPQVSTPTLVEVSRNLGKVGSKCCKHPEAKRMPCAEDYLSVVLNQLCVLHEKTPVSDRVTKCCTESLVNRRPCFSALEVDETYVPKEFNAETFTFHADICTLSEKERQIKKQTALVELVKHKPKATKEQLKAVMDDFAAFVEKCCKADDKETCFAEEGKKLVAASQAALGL

[9] = aggregate: 99% water/AN for TPE-OMe and TPE-OH, 99% AN/water for TPE-SO3
[10] = solution: acetonitrile for TPE-OMe and TPE-OH (10 μM), water for TPE-SO3 (5 μM)

Q: With `CC[N+](CC)(CC)CCCCOc1ccc(C(=C(c2ccc(OCCCC[N+](CC)(CC)CC)cc2)c2ccc(OCCCC[N+](CC)(CC)CC)cc2)c2ccc(OCCCC[N+](CC)(CC)CC)cc2)cc1.[Br-].[Br-].[Br-].[Br-]` [N+C4-TPE-C4N^+, N,N′,N″,N′″-[1,2-Tetrakis(1,4-phenoxybutyl)vinyl)tetrakis(triethylammonium bromide)] as the compound, how does the “Variety of FL in presence of DNA and RNA compared with TPE-C2N+ and TPE-C4N+” value [1] read?
A: much larger variety of FL

Q: Which results are given for `BrCCOc1ccc(C(=C(c2ccc(OCCBr)cc2)c2ccc(OCCBr)cc2)c2ccc(OCCBr)cc2)cc1` [TBEPE, 1,1,2,2-tetrakis[4-(2-bromoethoxy}phenyl]ethene]?
A: Increase of ΦF at 99% water versus AN solution [2]: ~35 fold; Fluorescence quantum yield (ΦF), molecularly dissolved [2]: 0.5%; Fluorescence quantum yield (ΦF), aggregated [2]: 18%; Solubility in water [3]: totally insoluble in water

Q: Which Increase of fluorescent intensity at 476 nm, AN solution to AN-water (1:99) suspension [2] does the source give for `BrCCOc1ccc(C(=C(c2ccccc2)c2ccc(OCCBr)cc2)c2ccccc2)cc1` [TPE 1, 1,2-Bis[4-(2-bromoethoxy)phenyl]-1,2-diphenylethene] here?
A: 240 fold

Q: And the “Increase of ΦF at 99% water versus AN solution” value [2]?
A: ~40 fold

Q: What about the “Fluorescence quantum yield (ΦF), molecularly dissolved” value [2] of the same compound?
A: ~0.5%

Q: What about the “Fluorescence quantum yield (ΦF), aggregated” value [2] of the same compound?
A: ~20%

Q: And the Solubility in water [3]?
A: insoluble in water

Q: For `CC[N+](CC)(CC)CCOc1ccc(/C(=C(\c2ccccc2)c2ccc(OCC[N+](CC)(CC)CC)cc2)c2ccccc2)cc1.[Br-].[Br-]` [TPE-C2N^+, N,N′-[1,2-Diphenyl-1,2-bis(1,4-phenoxyethyl)vinyl]bis(triethylammonium bromide)], which “Linear range of FL intensity vs BSA concentration” value [4] is on record?
A: 0-50 μg/ml^−1

Q: And the “G-quadruplex induction (CD spectral profile)” value [5]?
A: spectral profile comparable to the negative control

Q: What about the Solubility in water [3] of the same compound?
A: soluble in water

Q: What about the “Linear range of FL intensity vs DNA concentration” value [6] of the same compound?
A: 0-100 μg/ml^−1

Q: What about the “FL intensity increase upon addition of DNA” value ([6]; phosphate buffer pH 7.0, 25 C) of the same compound?
A: 5.4 fold

Q: What about the “Relative affinity to ctDNA versus BSA” value [6] of the same compound?
A: better affinity to ctDNA than BSA

Q: For `CC[N+](CC)(CC)CCCCOc1ccc(/C(=C(\c2ccccc2)c2ccc(OCCCC[N+](CC)(CC)CC)cc2)c2ccccc2)cc1.[Br-].[Br-]` [TPE-C4N^+, N,N′-[1,2-Diphenyl-1,2-bis(1,4-phenoxybutyl)vinyl]bis(triethylammonium bromide)], which “Linear range of FL intensity vs BSA concentration” value [4] is on record?
A: 0-40 μg/ml^−1

Q: And the I/Io ([4]; 500 μg/ml BSA added)?
A: 23.8

Q: And the Solubility in water [3]?
A: soluble in water

Q: What about the “Linear range of FL intensity vs DNA concentration” value [6] of the same compound?
A: 0-20 μg/ml^−1

Q: And the I/Io ([6]; 300 μg/ml ct DNA added)?
A: 16.3

Q: What about the “Relative affinity to ctDNA versus BSA” value [6] of the same compound?
A: gives the opposite result

Q: With `O=C(O)c1ccc(/C(=C(\c2ccccc2)c2ccc(C(=O)O)cc2)c2ccccc2)cc1` [TPE-COOH, 4,4′-(1,2-diphenylvinyl)di(phenylcarboxylic acid)] as the compound, how does the Solubility in water [3] read?
A: insoluble

Q: For `Oc1ccc(/C(=C(\c2ccccc2)c2ccc(O)cc2)c2ccccc2)cc1` [TPE-OH, 1,2-Bis(4-hydroxyphenyl)-1,2-diphenylethylene], which “ΦE (quantum yield), bind” value ([4]; BSA solution of TPE-OH•Na2 or TPE-SO3 in aqueous phosphate buffer pH 7.0) is on record?
A: 35.7%

Q: What about the “λex (emission maximum), bind” value ([4]; BSA solution of TPE-OH•Na2 or TPE-SO3 in aqueous phosphate buffer pH 7.0, excitation 350 nm) of the same compound?
A: 467 nm

Q: What about the “Linear range of FL intensity vs BSA concentration” value ([4]; aqueous phosphate buffer pH 7.0) of the same compound?
A: 0 to 10 µg/mL

Q: What about the “ΦE (quantum yield), aggr” value [7, 9] of the same compound?
A: 8.90%

Q: And the “λab (absorption maximum), aggr” value [7, 9]?
A: 316 nm

Q: What about the “Emission maximum wavelength (λem)” value [7, 9] of the same compound?
A: 439 nm

Q: And the “ΦE (quantum yield), soln” value [7, 10]?
A: 0.57%

Q: And the “λab (absorption maximum), soln” value [7, 10]?
A: 312 nm

Q: And the “Emission maximum wavelength (λem)” value [7, 10]?
A: 393 nm

Q: What does the source list for `COc1ccc(C(=C(c2ccccc2)c2ccc(OC)cc2)c2ccccc2)cc1` [TPE-OMe, 1,2-Bis(4-methoxyphenyl)-1,2diphenylethene]?
A: ΦE (quantum yield), aggr [7, 9]: 15.30%; λab (absorption maximum), aggr [7, 9]: 330 nm; Emission maximum wavelength (λem) [7, 9]: 477 nm; ΦE (quantum yield), soln [7, 10]: 0.11%; λab (absorption maximum), soln [7, 10]: 311 nm; Emission maximum wavelength (λem) [7, 10]: 394 nm

Q: With Coomassie Brilliant Blue as the compound, how does the “Staining reaction (soaking) time” value [8] read?
A: more than 6 hours
